Laboratory results as given in patent publication US6664260B2, “Heterocyclic ether substituted imidazoquinolines” (3M Innovative Properties Company, priority 2000, dated 2003).

Columns and labels:
[1] = test system: tumor necrosis factor (α); test: Cytokine Induction in Human Cells: tumor necrosis factor (α) secreted by PBMCs, ELISA; format: cell-based; set-up: key to Lowest Effective Concentration (μM) Tumor Necrosis Factor: A “*” indicates that no induction was seen at any of the tested concentrations; generally the highest tested concentration was 10 or 30 μM; conditions: incubated 18 to 24 hours, lowest concentration found to induce tumor necrosis factor; for minimal effective concentration: PBMC
From the text: (§1) An in vitro human blood cell system is used to assess cytokine induction. Activity is based on the measurement of interferon and tumor necrosis factor (α) (IFN and TNF, respectively) secreted into culture media as described by Testerman et. al. In “Cytokine Induction by the Immunomodulators Imiquimod and S-27609”, Journal of Leukocyte Biology, 58, 365-372 (September, 1995).
(§2) Whole blood from healthy human donors is collected by venipuncture into EDTA vacutainer tubes. Peripheral blood mononuclear cells (PBMCs) are separated from whole blood by density gradient centrifugation using Histopaque®-1077. The PBMCs are washed twice with Hank's Balanced Salts Solution and then are suspended at 3-4×10^6 cells/mL in RPMI complete. The PBMC suspension is added to 48 well flat bottom sterile tissue culture plates (Costar, Cambridge, Mass. or Becton Dickinson Labware, Lincoln Park, N.J.) containing an equal volume of RPMI complete media containing test compound.
(§3) The compounds are solubilized in dimethyl sulfoxide (DMSO). The DMSO concentration should not exceed a final concentration of 1% for addition to the culture wells
(§4) The solution of test compound is added at 60 μM to the first well containing RPMI complete and serial 3 fold dilutions are made in the wells. The PBMC suspension is then added to the wells in an equal volume, bringing the test compound concentrations to the desired range (0.12 to 30 μM). The final concentration of PBMC suspension is 1.5-2×10^6 cells/mL. The plates are covered with sterile plastic lids, mixed gently and then incubated for 18 to 24 hours at 37° C. in a 5% carbon dioxide atmosphere.
(§5) Following incubation the plates are centrifuged for 5-10 minutes at 1000 rpm (˜200×g) at 4° C. The cell-free culture supernatant is removed with a sterile polypropylene pipet and transferred to sterile polypropylene tubes. Samples are maintained at −30 to −70° C. until analysis. The samples are analyzed for interferon (α) and for tumor necrosis factor (α) by ELISA.
Tumor necrosis factor (α) (TNF)concentration is determined using ELISA kits available from Genzyme, Cambridge, Mass.; R&D Systems, Minneapolis, Minn.; or Pharmingen, San Diego, Calif. Results are expressed in pg/mL.
(§6) The table below lists the lowest concentration found to induce interferon and the lowest concentration found to induce tumor necrosis factor for each compound.

interferon (α) = test: Cytokine Induction in Human Cells: interferon (α) secreted by PBMCs, ELISA; format: cell-based; conditions: PBMC, incubated 18 to 24 hours, lowest concentration found to induce interferon
From the text: as §1, §2, §3, §4, §5
Interferon (α) concentration is determined by ELISA using a Human Multi-Species kit from PBL Biomedical Laboratories, New Brunswick, N.J. Results are expressed in pg/mL.
as §6

Structure (SMILES): Nc1nc2ccccc2c2c1ncn2CCOCCCc1ccccn1 [Example 6, 1-[2-(3-Pyridin-2-ylpropoxy)ethyl]-1H-imidazo[4,5-c]quinolin-4-amine]
- minimal effective concentration [1]: 1.11 µM
- melting point: 138 to 140 °C
- minimal effective concentration (interferon (α)): 0.12 µM

Structure (SMILES): Nc1nc2ccccc2c2c1ncn2CCOCCCc1nccs1 [Example 7, 1-{2-[3-(1,3-Thiazol-2-yl)propoxy]ethyl}-1H-imidazo[4,5-c]quinolin-4-amine]
- Lowest Effective Concentration (μM) Tumor Necrosis Factor [1]: *
- melting point: 134 to 135 °C
- minimal effective concentration (interferon (α)): 0.37 µM

Structure (SMILES): Nc1nc2ccccc2c2c1ncn2CCOCc1cn(CSc2ccccc2)nn1 [Example 11, 1-[2-({1-[(Phenylsulfanyl)methyl]-1H-1,2,3-triazol-4-yl}methoxy)ethyl]-1H-imidazo[4,5-c]quinoline-4-amine]
- minimal effective concentration [1]: 0.04 µM
- melting point: 182 to 184 °C
- minimal effective concentration (interferon (α)): 1.11 µM

Structure (SMILES): Nc1nc2ccccc2c2c1ncn2CCOCc1ccccn1 [Example 14, 1-[2-(Pyridin-2-ylmethoxy)ethyl]-1H-imidazo[4,5-c]quinolin-4-amine]
- minimal effective concentration [1]: 0.37 µM
- melting point: 196 to 198 °C
- minimal effective concentration (interferon (α)): 0.12 µM

Structure (SMILES): Nc1nc2ccccc2c2c1ncn2CCOCc1ccncc1 [Example 15, 1-[2-(Pyridin-4-ylmethoxy)ethyl]-1H-imidazo[4,5-c]quinolin-4-amine]
- minimal effective concentration [1]: 3.33 µM
- melting point: 159 to 161 °C
- minimal effective concentration (interferon (α)): 1.11 µM

Structure (SMILES): Cc1noc(C)c1COCCn1cnc2c(N)nc3ccccc3c21 [Example 16, 1-{2-[(3,5-Dimethylisoxazol-4-yl)methoxy]ethyl}-1H-imidazo[4,5-c]quinolin-4-amine]
- minimal effective concentration [1]: 10 µM
- melting point: 213 to 215 °C
- minimal effective concentration (interferon (α)): 3.33 µM

Structure (SMILES): Nc1nc2ccccc2c2c1ncn2CCOCC#Cc1cccs1 [Example 30, 1-{2-[(3-thien-2-ylprop-2-ynyl)oxy]ethyl}-1H-imidazo[4,5-c]quinolin-4-amine]
- minimal effective concentration [1]: 3.33 µM
- melting point: 148 to 150 °C
- minimal effective concentration (interferon (α)): 0.37 µM

Structure (SMILES): Cn1c(COCCn2cnc3c(N)nc4ccccc4c32)cc2ccccc21 [Example 31, 1-{2-[(1-methyl-1H-indol-2-yl)methoxy]ethyl}-1H-imidazo[4,5-c]quinolin-4-amine]
- minimal effective concentration [1]: 3.33 µM
- melting point: 243 to 245 °C
- minimal effective concentration (interferon (α)): 3.33 µM

Structure (SMILES): Nc1nc2ccccc2c2c1ncn2CCOCCCc1cccs1 [Example 32, 1-[2-(3-thien-2-ylpropoxy)ethyl]-1H-imidazo[4,5-c]quinolin-4-amine]
- minimal effective concentration [1]: 1.11 µM
- melting point: 130.1 to 131.6 °C
- minimal effective concentration (interferon (α)): 0.01 µM

Structure (SMILES): Cc1nc2c(N)nc3ccccc3c2n1CCOCCCc1cccnc1 [Example 34, 2-Methyl-1-[2-(3-pyridin-3-ylpropoxy)ethyl]-1H-imidazo[4,5-c]quinoline-4-amine]
- minimal effective concentration [1]: 0.04 µM
- melting point: 145 to 146 °C
- minimal effective concentration (interferon (α)): 0.01 µM
